Assay results published in ChEMBL document CHEMBL1201862, “PubChem BioAssay data set” (2004).
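Five concentrations, 48 hours, 96-well plates. GI50 = concentration required for 50% inhibition of growth.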 Activity calls are given as the source filed them. No stated cut-off is given here; in the data, active = GI50 up to about 1.1 µM and inactive = higher.

Experiments:
Assay in all cases: NCI tumour cell line growth inhibition, 48 h
[1] = system: 786-0
[2] = system: A498
[3] = system: A549
[4] = system: ACHN
[5] = system: BT-549
[6] = system: CAKI-1
[7] = system: CCRF-CEM
[8] = system: COLO 205
[9] = system: DU-145
[10] = system: EKVX
[11] = system: HCC 2998
[12] = system: HCT-116
[13] = system: HCT-15
[14] = system: HL-60
[15] = system: HOP-62
[16] = system: HOP-92
[17] = system: HT-29
[18] = system: Hs-578T
[19] = system: IGROV-1
[20] = system: K562
[21] = system: KM12
[22] = system: LOX IMVI
[23] = system: M14
[24] = system: MCF7
[25] = system: MDA-MB-231
[26] = system: MDA-MB-435
[27] = system: MOLT-4
[28] = system: Malme-3M
[29] = system: NCI-H226
[30] = system: NCI-H23
[31] = system: NCI-H460
[32] = system: NCI-H522
[33] = system: NCI/ADR-RES
[34] = system: OVCAR-3
[35] = system: OVCAR-4
[36] = system: OVCAR-5
[37] = system: OVCAR-8
[38] = system: PC-3
[39] = system: RPMI-8226
[40] = system: SF-268
[41] = system: SF-295
[42] = system: SF-539
[43] = system: SK-MEL-28
[44] = system: SK-MEL-2
[45] = system: SK-MEL-5
[46] = system: SK-OV-3
[47] = system: SN12C
[48] = system: SNB-19
[49] = system: SNB-75
[50] = system: SW-620
[51] = system: T47D
[52] = system: TK-10
[53] = system: U-251
[54] = system: UACC-257
[55] = system: UACC-62
[56] = system: UO-31
[57] = system: RXF 393
[58] = system: SR

COc1cc2nc(-c3cccs3)nc(N3CCN(c4ccccc4C(F)(F)F)CC3)c2cc1OC
GI50 [1]: > 100 µM (inactive)
GI50 [2]: > 100 µM (inactive)
GI50 [3]: > 100 µM (inactive)
GI50 [4]: > 100 µM (inactive)
GI50 [5]: > 100 µM (inactive)
GI50 [6]: 25.2 µM (inactive)
GI50 [7]: 7.23 µM (inactive)
GI50 [8]: > 100 µM (inactive)
GI50 [9]: > 100 µM (inactive)
GI50 [10]: 53.7 µM (inactive)
GI50 [11]: > 100 µM (inactive)
GI50 [12]: > 100 µM (inactive)
GI50 [13]: > 100 µM
GI50 [14]: 3.87 µM (inactive)
GI50 [15]: > 100 µM (inactive)
GI50 [16]: 21.4 µM (inactive)
GI50 [17]: > 100 µM (inactive)
GI50 [18]: 89.9 µM (inactive)
GI50 [19]: 25.9 µM (inactive)
GI50 [20]: 83.6 µM (inactive)
GI50 [21]: 75.5 µM (inactive)
GI50 [22]: > 100 µM (inactive)
GI50 [23]: > 100 µM (inactive)
GI50 [24]: 46.2 µM (inactive)
GI50 [25]: > 100 µM (inactive)
GI50 [26]: 52.8 µM (inactive)
GI50 [27]: 16.7 µM (inactive)
GI50 [28]: > 100 µM (inactive)
GI50 [29]: > 100 µM (inactive)
GI50 [30]: > 100 µM (inactive)
GI50 [31]: > 100 µM (inactive)
GI50 [32]: 90.4 µM (inactive)
GI50 [33]: > 100 µM (inactive)
GI50 [34]: 21.5 µM (inactive)
GI50 [35]: > 100 µM (inactive)
GI50 [36]: > 100 µM (inactive)
GI50 [37]: 93.3 µM (inactive)
GI50 [38]: 79.3 µM (inactive)
GI50 [39]: 51.3 µM (inactive)
GI50 [40]: 60.3 µM (inactive)
GI50 [41]: 51.2 µM (inactive)
GI50 [42]: 55.6 µM (inactive)
GI50 [43]: > 100 µM (inactive)
GI50 [44]: > 100 µM (inactive)
GI50 [45]: 33.3 µM (inactive)
GI50 [46]: > 100 µM (inactive)
GI50 [47]: > 100 µM (inactive)
GI50 [48]: > 100 µM (inactive)
GI50 [49]: > 100 µM (inactive)
GI50 [50]: > 100 µM (inactive)
GI50 [51]: > 100 µM (inactive)
GI50 [52]: 45 µM (inactive)
GI50 [53]: > 100 µM (inactive)
GI50 [54]: > 100 µM (inactive)
GI50 [55]: 76.7 µM (inactive)
GI50 [56]: > 100 µM (inactive)

CCOc1ccc(/C=C2\N=C(c3ccccc3)OC2=O)cc1
GI50 [3]: > 100 µM (inactive)
GI50 [4]: > 100 µM (inactive)
GI50 [5]: > 100 µM (inactive)
GI50 [7]: > 100 µM (inactive)
GI50 [10]: > 100 µM (inactive)
GI50 [11]: > 100 µM (inactive)
GI50 [13]: > 100 µM
GI50 [14]: > 100 µM (inactive)
GI50 [15]: > 100 µM (inactive)
GI50 [16]: > 100 µM (inactive)
GI50 [17]: > 100 µM (inactive)
GI50 [18]: > 100 µM (inactive)
GI50 [19]: > 100 µM (inactive)
GI50 [20]: > 100 µM (inactive)
GI50 [21]: > 100 µM (inactive)
GI50 [23]: > 100 µM (inactive)
GI50 [24]: > 100 µM (inactive)
GI50 [26]: > 100 µM (inactive)
GI50 [27]: 8.71 µM (inactive)
GI50 [29]: > 100 µM (inactive)
GI50 [30]: > 100 µM (inactive)
GI50 [31]: > 100 µM (inactive)
GI50 [32]: 48.5 µM (inactive)
GI50 [33]: > 100 µM (inactive)
GI50 [34]: > 100 µM (inactive)
GI50 [35]: > 100 µM (inactive)
GI50 [36]: > 100 µM (inactive)
GI50 [37]: > 100 µM (inactive)
GI50 [38]: > 100 µM (inactive)
GI50 [39]: > 100 µM (inactive)
GI50 [57]: > 100 µM (inactive)
GI50 [40]: > 100 µM (inactive)
GI50 [41]: > 100 µM (inactive)
GI50 [42]: > 100 µM (inactive)
GI50 [43]: > 100 µM (inactive)
GI50 [44]: > 100 µM (inactive)
GI50 [45]: > 100 µM (inactive)
GI50 [46]: > 100 µM (inactive)
GI50 [48]: > 100 µM (inactive)
GI50 [49]: 83 µM (inactive)
GI50 [58]: > 100 µM (inactive)
GI50 [50]: > 100 µM (inactive)
GI50 [52]: > 100 µM (inactive)
GI50 [53]: > 100 µM (inactive)
GI50 [54]: > 100 µM (inactive)
GI50 [55]: > 100 µM (inactive)
GI50 [56]: > 100 µM (inactive)

N#Cc1c(N2CCOCC2)[nH]c(=O)c(C(c2c(Cl)cccc2Cl)c2c(O)c(C#N)c(N3CCOCC3)[nH]c2=O)c1O
GI50 [1]: 32 µM (inactive)
GI50 [2]: 34.5 µM (inactive)
GI50 [3]: 77.6 µM (inactive)
GI50 [4]: 16.1 µM (inactive)
GI50 [5]: 17.6 µM (inactive)
GI50 [6]: 18.1 µM (inactive)
GI50 [7]: 15.1 µM (inactive)
GI50 [8]: 13.8 µM (inactive)
GI50 [9]: 23.9 µM (inactive)
GI50 [10]: 18.3 µM (inactive)
GI50 [11]: 12.5 µM (inactive)
GI50 [12]: 28.3 µM (inactive)
GI50 [13]: 15 µM
GI50 [14]: 12.9 µM (inactive)
GI50 [15]: 22.1 µM (inactive)
GI50 [16]: 18 µM (inactive)
GI50 [17]: 15.4 µM (inactive)
GI50 [18]: 19.5 µM (inactive)
GI50 [19]: 18.1 µM (inactive)
GI50 [20]: 11.2 µM (inactive)
GI50 [21]: 16.1 µM (inactive)
GI50 [22]: 13 µM (inactive)
GI50 [23]: 17.9 µM (inactive)
GI50 [24]: 16.7 µM (inactive)
GI50 [25]: 16.6 µM (inactive)
GI50 [26]: 16.6 µM (inactive)
GI50 [27]: 16.1 µM (inactive)
GI50 [28]: 12.9 µM (inactive)
GI50 [29]: 23 µM (inactive)
GI50 [30]: 16.2 µM (inactive)
GI50 [31]: > 100 µM (inactive)
GI50 [32]: 13.4 µM (inactive)
GI50 [33]: 27.4 µM (inactive)
GI50 [34]: 16.4 µM (inactive)
GI50 [35]: 17.7 µM (inactive)
GI50 [36]: 14 µM (inactive)
GI50 [37]: 18.6 µM (inactive)
GI50 [38]: 17.8 µM (inactive)
GI50 [39]: 21.4 µM (inactive)
GI50 [57]: 14.1 µM (inactive)
GI50 [40]: 19.5 µM (inactive)
GI50 [41]: 30.5 µM (inactive)
GI50 [42]: 19.1 µM (inactive)
GI50 [43]: 17.9 µM (inactive)
GI50 [44]: 17.6 µM (inactive)
GI50 [45]: 16.6 µM (inactive)
GI50 [47]: 20.1 µM (inactive)
GI50 [48]: 16.1 µM (inactive)
GI50 [58]: 5.89 µM (inactive)
GI50 [50]: 17.7 µM (inactive)
GI50 [52]: 17.5 µM (inactive)
GI50 [53]: 16.7 µM (inactive)
GI50 [54]: 17.8 µM (inactive)
GI50 [55]: 16.6 µM (inactive)
GI50 [56]: 18.2 µM (inactive)
